Experimental data as given in ChEMBL document CHEMBL1201862, “PubChem BioAssay data set” (2004).
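Five concentrations, 48 hours, 96-well plates. Here, GI50 denotes the concentration required for 50% inhibition of growth.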 Active and inactive are the calls of the source. No stated cut-off is given here; in the data, active = GI50 up to about 1.1 µM and inactive = higher.

Assays:
Assay in all cases: DTP human tumour cell line panel, 48 h
SK-MEL-5 = tested on: SK-MEL-5
TK-10 = tested on: TK-10
SF-539 = tested on: SF-539
MOLT-4 = tested on: MOLT-4
SR = tested on: SR
786-0 = tested on: 786-0
HT-29 = tested on: HT-29
SF-268 = tested on: SF-268
CCRF-CEM = tested on: CCRF-CEM
NCI/ADR-RES = tested on: NCI/ADR-RES
ACHN = tested on: ACHN
RPMI-8226 = tested on: RPMI-8226
SK-OV-3 = tested on: SK-OV-3
Hs-578T = tested on: Hs-578T
A498 = tested on: A498
HOP-92 = tested on: HOP-92
NCI-H23 = tested on: NCI-H23
MDA-MB-435 = tested on: MDA-MB-435
U-251 = tested on: U-251
NCI-H226 = tested on: NCI-H226

## NC(=O)N/N=C1/CCC(O)CC1CC(=O)O (stereo not given)
SK-MEL-5
  GI50: > 100 µM (inactive)
TK-10
  GI50: > 100 µM (inactive)
SF-539
  GI50: > 100 µM (inactive)
MOLT-4
  GI50: > 100 µM (inactive)
SR
  GI50: 30.3 µM (inactive)
786-0
  GI50: > 100 µM (inactive)
HT-29
  GI50: > 100 µM (inactive)
SF-268
  GI50: > 100 µM (inactive)
CCRF-CEM
  GI50: 36.3 µM (inactive)
NCI/ADR-RES
  GI50: > 100 µM (inactive)
ACHN
  GI50: > 100 µM (inactive)
RPMI-8226
  GI50: > 100 µM (inactive)
SK-OV-3
  GI50: > 100 µM (inactive)
Hs-578T
  GI50: > 100 µM (inactive)
A498
  GI50: > 100 µM (inactive)
HOP-92
  GI50: > 100 µM (inactive)
NCI-H23
  GI50: > 100 µM (inactive)
MDA-MB-435
  GI50: > 100 µM (inactive)
U-251
  GI50: > 100 µM (inactive)
NCI-H226
  GI50: > 100 µM (inactive)

## Cc1ccc(C2=Nn3c(nc4sc(-c5ccccc5)cc4c3=O)SC2)cc1
SK-MEL-5
  GI50: > 100 µM (inactive)
TK-10
  GI50: > 100 µM (inactive)
SF-539
  GI50: > 100 µM (inactive)
MOLT-4
  GI50: > 100 µM (inactive)
SR
  GI50: > 100 µM (inactive)
786-0
  GI50: > 100 µM (inactive)
HT-29
  GI50: > 100 µM (inactive)
SF-268
  GI50: > 100 µM (inactive)
CCRF-CEM
  GI50: > 100 µM (inactive)
NCI/ADR-RES
  GI50: > 100 µM (inactive)
ACHN
  GI50: > 100 µM (inactive)
RPMI-8226
  GI50: > 100 µM (inactive)
SK-OV-3
  GI50: > 100 µM (inactive)
Hs-578T
  GI50: > 100 µM (inactive)
A498
  GI50: > 100 µM (inactive)
HOP-92
  GI50: > 100 µM (inactive)
NCI-H23
  GI50: > 100 µM (inactive)
MDA-MB-435
  GI50: > 100 µM (inactive)
U-251
  GI50: > 100 µM (inactive)
NCI-H226
  GI50: > 100 µM (inactive)

## CCCCN1C(=O)CS/C1=N/Nc1nc2c([nH]1)c(=O)n(C)c(=O)n2C
SK-MEL-5
  GI50: 37.8 µM (inactive)
TK-10
  GI50: > 100 µM (inactive)
SF-539
  GI50: 37.8 µM (inactive)
MOLT-4
  GI50: 21.8 µM (inactive)
SR
  GI50: 11.9 µM (inactive)
786-0
  GI50: 17.3 µM (inactive)
HT-29
  GI50: 23.9 µM (inactive)
SF-268
  GI50: 7.74 µM (inactive)
CCRF-CEM
  GI50: 22.2 µM (inactive)
NCI/ADR-RES
  GI50: > 100 µM (inactive)
ACHN
  GI50: > 100 µM (inactive)
RPMI-8226
  GI50: 42.4 µM (inactive)
SK-OV-3
  GI50: 6.47 µM (inactive)
Hs-578T
  GI50: 45.4 µM (inactive)
A498
  GI50: > 100 µM (inactive)
HOP-92
  GI50: 43.1 µM (inactive)
NCI-H23
  GI50: > 100 µM (inactive)
MDA-MB-435
  GI50: 14.7 µM (inactive)
U-251
  GI50: 15 µM (inactive)
NCI-H226
  GI50: > 100 µM (inactive)

## C/C(=C/CO[Si](C)(C)C(C)(C)C)C(=O)N(C)c1ccccc1I
SK-MEL-5
  GI50: 15.4 µM (inactive)
TK-10
  GI50: 18.7 µM (inactive)
SF-539
  GI50: 17.2 µM (inactive)
MOLT-4
  GI50: 18.2 µM (inactive)
SR
  GI50: 11.6 µM (inactive)
786-0
  GI50: 17.1 µM (inactive)
HT-29
  GI50: 10 µM (inactive)
SF-268
  GI50: 17.5 µM (inactive)
CCRF-CEM
  GI50: 15.2 µM (inactive)
NCI/ADR-RES
  GI50: 17.4 µM (inactive)
ACHN
  GI50: 17.3 µM (inactive)
RPMI-8226
  GI50: 19.4 µM (inactive)
SK-OV-3
  GI50: 18 µM (inactive)
Hs-578T
  GI50: 18.2 µM (inactive)
A498
  GI50: 17.3 µM (inactive)
HOP-92
  GI50: 10.5 µM (inactive)
NCI-H23
  GI50: 22 µM (inactive)
MDA-MB-435
  GI50: 17.2 µM (inactive)
U-251
  GI50: 15.3 µM (inactive)
NCI-H226
  GI50: 16.4 µM (inactive)

## CNC(=O)OC(COC)CN1CCN(c2ccccc2C)CC1 (stereo not given)
SK-MEL-5
  GI50: > 10 µM (inactive)
TK-10
  GI50: > 10 µM (inactive)
SF-539
  GI50: > 10 µM (inactive)
MOLT-4
  GI50: > 10 µM (inactive)
SR
  GI50: > 10 µM (inactive)
786-0
  GI50: > 10 µM (inactive)
HT-29
  GI50: > 10 µM (inactive)
SF-268
  GI50: > 10 µM (inactive)
CCRF-CEM
  GI50: > 10 µM (inactive)
NCI/ADR-RES
  GI50: > 10 µM (inactive)
ACHN
  GI50: > 10 µM (inactive)
RPMI-8226
  GI50: > 10 µM (inactive)
SK-OV-3
  GI50: > 10 µM (inactive)
Hs-578T
  GI50: > 10 µM (inactive)
A498
  GI50: > 10 µM (inactive)
HOP-92
  GI50: > 10 µM (inactive)
NCI-H23
  GI50: > 10 µM (inactive)
MDA-MB-435
  GI50: > 10 µM (inactive)
U-251
  GI50: > 10 µM (inactive)
NCI-H226
  GI50: > 10 µM (inactive)

## COC(=O)C1=C(O)C(C(=O)OC)C2CC(=O)CC1C2(C)C (stereo not given)
SK-MEL-5
  GI50: > 100 µM (inactive)
TK-10
  GI50: > 100 µM (inactive)
SF-539
  GI50: > 100 µM (inactive)
MOLT-4
  GI50: > 100 µM (inactive)
SR
  GI50: > 100 µM (inactive)
786-0
  GI50: > 100 µM (inactive)
HT-29
  GI50: > 100 µM (inactive)
SF-268
  GI50: > 100 µM (inactive)
CCRF-CEM
  GI50: > 100 µM (inactive)
NCI/ADR-RES
  GI50: > 100 µM (inactive)
ACHN
  GI50: > 100 µM (inactive)
RPMI-8226
  GI50: > 100 µM (inactive)
SK-OV-3
  GI50: > 100 µM (inactive)
Hs-578T
  GI50: 11.2 µM (inactive)
A498
  GI50: > 100 µM (inactive)
HOP-92
  GI50: > 100 µM (inactive)
NCI-H23
  GI50: > 100 µM (inactive)
MDA-MB-435
  GI50: > 100 µM (inactive)
U-251
  GI50: > 100 µM (inactive)
NCI-H226
  GI50: > 100 µM (inactive)

## CCOC(=O)/C(=C\c1ccnc2ccccc12)P(=O)(OCC)OCC
SK-MEL-5
  GI50: 2.84 µM (inactive)
TK-10
  GI50: 4.43 µM (inactive)
SF-539
  GI50: 1.47 µM (inactive)
MOLT-4
  GI50: 4.65 µM (inactive)
SR
  GI50: 2.24 µM (inactive)
786-0
  GI50: 1.94 µM (inactive)
HT-29
  GI50: 2.16 µM (inactive)
SF-268
  GI50: 2.53 µM (inactive)
CCRF-CEM
  GI50: 0.366 µM (active)
NCI/ADR-RES
  GI50: 1.72 µM (inactive)
ACHN
  GI50: 2.08 µM (inactive)
RPMI-8226
  GI50: 2.67 µM (inactive)
SK-OV-3
  GI50: 4.99 µM (inactive)
Hs-578T
  GI50: 3.21 µM (inactive)
A498
  GI50: 1.77 µM (inactive)
HOP-92
  GI50: 2.49 µM (inactive)
NCI-H23
  GI50: 1.9 µM (inactive)
MDA-MB-435
  GI50: 2.75 µM (inactive)
U-251
  GI50: 2.9 µM (inactive)
NCI-H226
  GI50: 10.5 µM (inactive)

## CCC1(C(=O)OC(C)(C)C)OC12C(C)CCCC2C (stereo not given)
SK-MEL-5
  GI50: 33.3 µM (inactive)
TK-10
  GI50: 41.3 µM (inactive)
SF-539
  GI50: > 100 µM (inactive)
MOLT-4
  GI50: 18.7 µM (inactive)
SR
  GI50: 18.5 µM (inactive)
786-0
  GI50: 40.6 µM (inactive)
HT-29
  GI50: 39.5 µM (inactive)
SF-268
  GI50: 43.1 µM (inactive)
CCRF-CEM
  GI50: 18.7 µM (inactive)
NCI/ADR-RES
  GI50: > 100 µM (inactive)
ACHN
  GI50: 24.2 µM (inactive)
RPMI-8226
  GI50: 21.5 µM (inactive)
SK-OV-3
  GI50: 73.6 µM (inactive)
Hs-578T
  GI50: 90.2 µM (inactive)
A498
  GI50: 57.9 µM (inactive)
HOP-92
  GI50: 34.2 µM (inactive)
NCI-H23
  GI50: 83.6 µM (inactive)
MDA-MB-435
  GI50: 41.2 µM (inactive)
U-251
  GI50: 42.9 µM (inactive)
NCI-H226
  GI50: 45 µM (inactive)
